# Measurements reported in patent publication EP0698347B1, “Food composition containing reuterin” (BIOGAIA BIOLOGICS AB, priority 1987, dated 1988).
# Tests used:
# spoilage pseudomonads = experiment: Fish fillet storage: spoilage bacteria count (Table 8); conditions: fish fillets dipped in treatment solution, 8°C for 4 days
# Description: Lactobacillus reuteri plus glycerol constitutes a novel effective food preservation process. Evidence for this was obtained using storage of fish as a model system. This study was conducted as follows: Fish fillets (Herring, Clupea harengas) were dipped in the following treatment solution: • control: no treatment • glycerol: 250 mM glycerol solution • strain 1068: 250 mM glycerol solution containing 4x10^9 CFU per ml L. reuteri 1068 (a non-reuterin producing strain) • strain 1063: 250 mM glycerol solution containing 4x10^9 CFU per ml L. reuteri 1063 The fillets (2 parallel samples each) were kept in large Petri dishes at 8°C for 4 days in a refrigerator. The ammonia content and CFU of relevant bacteria (i.e., spoilage pseudomonads and added lactobacilli) were then analyzed to evaluate the shelf-life of the food product. […] L. reuteri 1068 did so to some extent but not enough to prevent spoilage which is generally indicated by a log 8.4 pseudomonad count. • (iii) the retarding effect of L. reuteri and glycerol on spoilage bacteria has a strong reducing effect on ammonia liberation. • (iv) a food preservative effect of L. reuteri plus glycerol is indicated for all kinds of food spoilage.
# [1] = Antimicrobial activity of pure commercial preparations; type: cell-based; conditions: concentrations as high as 0.125M
# Source text: Reuterin Is a Product of Glycerol Fermentation. Reuterin is a new product associated with the same type of heterolactic fermentation of glycerol that occurs in other Lactobacillus species. Reuterin can be isolated and identified as a product of glycerol fermentation by L. reuteri using HPLC.
# E. coli [2] = experiment: Co-culture of E. coli with and without L. reuteri 1063 on various substrates (Table 1); type: cell-based; parameters: % Inhibition: concentration or dose not given beside the values; conditions: for E. coli (CFU/ml) after 6 hours: substrate 20 mM (C6, C5) or 40 mM (C3), inoculum 5 x 10^6 CFU per ml E. coli
# Description: (§1) Conditions under which reuterin is produced have been determined. Reuterin is not produced under aerobic conditions (atmospheric oxygen concentration) but under reduced oxygen tension. It is produced when L. reuteri is cultured anaerobically (or semi-anaerobically in still culture) in the MIC assay medium described above containing 20-500 mM glycerol or glyceraldehyde in place of glucose as the major carbon and energy source. […] Twenty other substances, including hexoses, hexitols, pentoses, pentitols, disaccharides and a variety of phosphorylated and non-phosphorylated C3-substances, were tested for their ability to support reuterin production. […] The medium, containing a substrate at 20 mM (C6 and C5 substrates) or 40 mM (C3 substrates) concentrations, was inoculated with 5 x 10^6 colony-forming units (CFU) per ml E. coli with and without L. reuteri. Only glycerol and glyceraldehyde yielded reuterin. Also, réuterin production from glycerol is inhibited when glucose or another growth substrate is included in the production medium. The results shown in Table 2 indicate the percent inhibition in viable count of a 6.7 x 10^7 CFU per ml E. coli inoculum by supernatant fractions of L. reuteri grown on various indicated substrates at 40 mM concentrations.
# E. coli [3] = experiment: Inhibition of E. coli by supernatant fractions of L. reuteri grown on various substrates (Table 2); type: cell-based
# Description: as §1
compound,measurement,setting,value
OCC(O)CO [Glycerol],Log CFU bacteria per g Pseudomonads (kings agar),spoilage pseudomonads,9.4 Log CFU bacteria per g
same,antimicrobial activity,[1],essentially devoid of antimicrobial activity
same,E. coli (CFU/ml) after 6 hours,E. coli [2]; Addition of L. reuteri 1063: +,5.5x10^4 CFU/ml
same,E. coli (CFU/ml) after 6 hours,E. coli [2]; Addition of L. reuteri 1063: -,1.2x10^7 CFU/ml
same,% Inhibition,"E. coli [2]; E. coli with versus without L. reuteri 1063 on the substrate, 6 hours",99%
same,% Inhibition,"E. coli [3]; percent inhibition in viable count of 6.7 x 10^7 CFU per ml E. coli inoculum by supernatant fraction, substrate 40 mM",99.9%
same,Growth of E. coli presence of centrifuged culture medium CFU/ml after 6 hours,"E. coli [3]; supernatant fraction of L. reuteri grown on the substrate at 40 mM, inoculum 6.7 x 10^7 CFU per ml E. coli",4.5x10^5 CFU/ml
